Source: US8580579B2, “Hydrophilic and lipophilic rhodamines for labelling and imaging” (Max-Planck-Gesellschaft zur Foerderung der Wissenschaften …, priority 2009, dated 2013)
Entries after “also recorded” stand apart in the source; their conditions may differ.

How the values were obtained:
[1] = Conjugation with antibodies: labelling degree and quantum yield of conjugates; format: physicochemical
Text: The degree of labelling achieved with antibodies may strongly vary; typically, compounds 6/6D (taken as their NHS esters 9/9D) attached to the anti-rabbit and anti-mouse antibodies produced a labelling degree from 2.5 up to 6. […] Decrease in fluorescence quantum yields after conjugation with antibodies is normal and well documented [cf.: V. P. Boyarskiy, V. N. Below, R. Medda, B. Hein, M. Bossi, S. W. Hell, Chem. Eur. J. 2008, 14, 1784-1792].

[2] = Solubility and polarity of the dyes
[3] = Excited state lifetime and FCS study under single molecule conditions; format: physicochemical
[4] = Bleaching measurements by pump-probe cycles; format: physicochemical; details: 50 pump-probe cycles, pump intensity 18 kW/cm^2, 633 nm CW, 10 ms pulses, air-oxygen
Method: The degree of photodecomposition was evaluated by measuring the decrease in the fluorescence intensity of compound 6 (FIG. 5). […] The pulse duration was 10 ms, and the pulse power 18.3 kW/cm^2 (633 nm CW laser light). Photostability of compound 6 is strong: 50 pump-probe cycles with a pump intensity of 18 kW/cm^2 only bleach 25% of the ensemble allowing for a high number of single-molecule returns, i.e. a high number of single-molecule localizations and thus a final image with high contrast.

physchem = details: water
[5] = Chemical and storage stability of dyes and reactive derivatives; format: physicochemical
[6] = Ground state depletion studies (pump-probe mode); format: physicochemical
Text: The compound 6 is excellent for super-resolution far-field microscopy based on ground-state depletion, such as GSDIM (ground-state depletion followed by individual molecule return; J. Fölling et. al, Nature Meth. 2008, 5, 943-945). Here, “off” and “on” switching of the fluorescence is achieved by transiently shelving the fluorophore into a metastable dark state. Upon the return of only a few isolated single molecules to the fluorescent singlet state, positions of these single light emitting spots can be imaged on a camera and localized with high precision. Upon repeating this procedure and acquiring many pictures, a super-resolution image can be reconstructed from the localized positions. A prerequisite of this method is that >90% of the ensemble of the applied fluorescent dye can be shelved into a dark state at a time (to ensure the detection of isolated fluorescent spots at a time in a densely labeled sample) and that the fluorophore is bright enough, i.e., that it emits enough photons while being in the singlet on-state (to ensure high precision of localization). […] Switching off of the laser leads to a recovery of the fluorescence ensemble within a characteristic recovery time of 50 ms (FIG. 7), indicating the shelving into a metastable dark state. The measurements of FIGS. 6 and 7 were performed in a pump-probe mode, i.e., the residual level of fluorescence was probed with I=100 W/cm^2 for 0.5 ms after strong irradiation for 10 ms with the given laser intensity. Further on, recovery of the fluorescence can be accelerated by addition of UV light, which leads to an optically-induced de-population of the dark states. Already 2 kW/cm^2 of 375 nm light recovers 60% of the fluorescence within an irradiation period of 1 ms (FIG. 8). This is important in cases of samples of low label density where the addition of UV light and thus acceleration of dark state return helps to accelerate image acquisition.

[7] = UV-visible absorption and fluorescence spectra of the dyes of the invention; format: physicochemical
Method: UV-visible absorption spectra were recorded on a Varian Cary 4000 UV-Vis spectrophotometer, and fluorescence spectra on a Varian Cary Eclipse fluorescence spectrophotometer. Reactions were carried out upon magnetic stirring in Schlenk flasks equipped with septa or reflux condensers with bubble-counters under argon using a standard manifold with vacuum and argon lines. All NMR spectra are referenced to tetramethylsilane as an internal standard (δ=0 ppm) using the signals of the residual protons of CHCl3 (7.26 ppm) in CDCl3, CHD2OD (3.31 ppm) in CD3OD, HOD (4.75 ppm) in D2O, [D5]acetone (2.04 ppm) in [D6]acetone or [D5]DMSO (2.50 ppm) in [D6]DMSO. Multiplicities of signals are described as follows: s=singlet, br. s=broad singlet, d=doublet, t=triplet, q=quartet, quint=quintet, m=multiplet, mc=centrosymmetrical multiplet. Coupling constants (J) are given in Hz. Multiplicities in the ^13C NMR spectra were determined by APT (Attached Proton Test) measurements. Low resolution mass spectra (electro spray ionization, ESI) were obtained with LCQ and ESI-TOF mass-spectrometers (MICROTOF (focus), Fa. Bruker). The MICROTOF spectrometer equipped with ESI ion source Apollo and direct injector with LC autosampler Agilent RR 1200 was used for obtaining high resolution mass spectra (ESI-HRMS). ESI-HRMS were obtained also on APEX IV spectrometer (Bruker). HPLC system (Knauer): Smartline pump 1000 (2×), UV detector 2500, column thermostat 4000 (25° C.), mixing chamber, injection valve with 20 and 100 μL loop for the analytical and preparative columns, respectively; 6-port-3-channel switching valve; analytical column: Eurospher-100 C18, 5 μm, 250×4 mm, 1.1 mL/min; preparative column: Eurospher-100-5 C18, 5 μm, 250×8 mm, 3.7 mL/min; solvent A: water+0.1% v/v trifluoroacetic acid (TFA); solvent B: MeCN+0.1% v/v TFA; detection at 636 nm (if not stated otherwise). Normal phase analytical TLC was performed on MERCK ready-to-use plates with silica gel 60 (F254) and reversed phase TLC—on RP-18W/UV254 precoated TLC plates (Macherey-Nagel). Preparative TLC was performed on MERCK HPTLC silica gel 60 plates (10×10 cm, layer thickness 0.2 mm). Column chromatography: MERCK silica gel, grade 60, 0.04-0.063 mm or Polygoprep 60-50 C18 (Macherey-Nagel).

[8] = Fluorescence quantum yield, Atto 633 as reference; format: physicochemical; details: Atto 633 as reference (Φfl = 64% in aqueous buffer)
Text: Moreover, intersystem crossing rates (kISC) and rates of the T1→S0 transitions were also found to be the same for both deuterated and undeuterated substances (see ref. to Table 2).

fluorescence quantum yield of the conjugate ([1]; conjugate with goat anti-rabbit antibodies): 40%
fluorescence quantum yield of the conjugate ([1]; conjugate with sheep anti-mouse antibodies): 48%
polarity [2]: polar; also recorded: hydrophilic
solubility in water ([2]; room temperature): 40-45 mg in 1 mL
τfl (excited state lifetime) [3]: 3.57^20 ns
fraction of the ensemble bleached [4]: 25%
solubility (physchem): > 100 mM
fluorescence recovered by UV light ([6]; 2 kW/cm^2 of 375 nm light, irradiation period 1 ms): 60%
extent of ground state depletion ([6]; 633 nm laser pulses, ca. 12 kW/cm^2): 97±3%
fluorophores switched off at a time ([6]; I>10 kW/cm^2 CW 633 nm, poly(vinyl alcohol) matrix): 97%
Stokes shift ([7]; dyes of the invention): 23 nm
ε · 10^−5 ([7]; solvent H2O): 0.94 M^−1 cm^−1
λmax (abs.) ([7]; solvent H2O): 637 nm
λmax (fl.) ([7]; solvent H2O): 660 nm
Φfl in water [8]: 80%
Compound: CN(CCC(=O)O)C(=O)c1c(F)c(F)c(F)c(F)c1C1=c2cc3c4c(c2Oc2c1cc1c5c2CCCN5C(C)(C)C=C1CS(=O)(=O)O)CCC[N+]=4C(C)(C)C=C3CS(=O)(=O)[O-] [Compound 6]
solubility in organic solvents [2]: insoluble in diethyl ether, aliphatic, chlorinated, and aromatic hydrocarbons
solubility in water or aqueous buffers [2]: soluble in water; also recorded: soluble in water or aqueous buffers
stability in methanol or methanol-containing solutions [5]: formed the corresponding methyl ester; also recorded: rapid esterification of the β-alanine fragment with methanol
